These results are taken from publication PMC8779631, “Binding Properties of Odorant-Binding Protein 4 of Tirathaba rufivena to Areca catechu Volatiles” (Plants, 2022).

Test [1] deals with TrufOBP4. Description: Binding of fluorescent reporter 1-NPN (titration, Scatchard plot). As to conditions: 2 μM protein titrated with 2 to 20 μM 1-NPN; read-out: K1-NPN (dissociation constant of 1-NPN). Also noted: species or system Tirathaba rufivena. As to the method:
(§1) The binding ability of purified recombinant OBPs was evaluated with an F-7000 fluorescence spectrometer (Hitachi, Tokyo, Japan). The fluorescence spectra were recorded between 360 and 650 nm. N-Phenyl-1-naphthylamine (1-NPN) was selected as the fluorescent reporter and dissolved in chromatographic methanol at a concentration of 1 mM. The purified TrufOBP4 was dissolved in 50 mM Tris-HCl (pH 7.4) at a final concentration of 2 μM. The data for the 1-NPN-TrufOBP4 complex formation were obtained by titration of 2 μM protein with increasing concentrations (2 to 20 μM) of 1-NPN. The dissociation constant of 1-NPN (K1-NPN) was calculated using Prism 8 (GraphPad Software, San Diego, USA). To evaluate the binding ability of TrufOBP4 with volatiles, 1-NPN was replaced with different odor compounds from the TrufOBP4/1-NPN complex. The odor ligands were dissolved in chromatographic methanol at a concentration of 1 mM and added as aliquots to the protein solution. The spectral results were obtained, and the dissociation constants of the competitors were calculated with the formula: Ki = IC50/(1 + [1-NPN]/K1-NPN), where 1-NPN represents the free concentration of 1-NPN, and IC50 represents the ligand concentration displacing 50% of the fluorescent reporter.

The target of test [2] is TrufOBP4. Description: Fluorescence competitive binding assay (displacement of 1-NPN). Also on record: species or system Tirathaba rufivena. Conditions: 2 μM protein, 50 mM Tris-HCl pH 7.4; for pKi: Ki = IC50/(1 + [1-NPN]/K1-NPN); for pIC50: ligand concentration displacing 50% of 1-NPN. As to the method: as §1
Test [3] concerns Hyphantria cunea. Also on record: method as in PMID 32547409. As to conditions: stimulation with the compound; cited from earlier work.
The subject of test [4] is EoblGOBP2. Also noted: method as in PMID 29778539, PMID 29543772. Conditions: cited from earlier work.
Test [5] deals with Holotrichia oblita. Also on record: method as in earlier work. Conditions: cited from earlier work.
The test system of test [6] is AipsGOBP2. Also noted: method as in PMID 29778539, PMID 29543772. Conditions: cited from earlier work.
Test [7] has as its system Tribolium castaneum. Also noted: method as in earlier work. Conditions: cited from earlier work.
For test [8], the system named is Rhyzopertha dominica. Also on record: method as in earlier work. As to conditions: cited from earlier work.
The test system of test [9] is LsatOBP1. Also noted: method as in PMID 11274212. Conditions: cited from earlier work.
The subject of test [10] is PregOBP56a. Also on record: method as in PMID 23326317. Conditions: cited from earlier work.
The subject of test [11] is MbraPBP1. Also on record: method as in PMID 11274212. As to conditions: cited from earlier work.

pIC50, pKd, pKi: −log10 of the molar value.

With `c1ccc(Nc2cccc3ccccc23)cc1` [1-NPN, N-Phenyl-1-naphthylamine], the pKd in test [1] was 5.17.

`CCCCC(CC)CO` (stereo not drawn) [2-Ethylhexanol]: in test [2], the negative-log Ki (pKi) was 4.68 and the negative-log IC50 (pIC50) is 4.62.

For the molecule `CC1=CCC2C(C1)C2(C)C` (stereo not drawn) [3-Carene], in [2], the negative-log Ki (pKi) was 4.71 and the pIC50 was 4.65.

Turning to `CCC=CCCOC(C)=O` [3-Hexenyl acetate], in test [2], the negative logarithm of the Ki (pKi) is 4.39 and the negative-log IC50 (pIC50) was 4.33.

For the molecule `CCC(C)C(=O)OCCC(C)C` (stereo not drawn) [3-Methylbutyl 2-methylbutanoate], in test [2], the pKi was 4.34 and the negative-log IC50 (pIC50) is under 4.30.

Consider `C=C(C)[C@H]1CC=C(C)CC1` [(R)-(+)-limonene], for which, in test [2], the pKi was 4.66 and the negative logarithm of the IC50 (pIC50) was 4.60.

`C=C(C)[C@@H]1CC=C(C)CC1` [(S)-(−)-Limonene]: in test [2], the negative-log Ki (pKi) was 4.54 and the negative-log IC50 (pIC50) is 4.48.

On to `C=C(C)[C@H]1CC=C(C)CC1` [Cinene], for which, in test [2], the negative-log Ki (pKi) was under 4.30 and the negative-log IC50 (pIC50) is under 4.30.

In the case of `CC12CCC(CC1)C(C)(C)O2` [Cineole], in [2], the pKi was under 4.30 and the pIC50 was under 4.30.

On to `CCCCOC(=O)c1ccccc1C(=O)OCCCC` [Dibutyl phthalate], for which the mating rates result in test [3] is listed as “significantly increased”. The binding affinity entry in [4] and in test [6] was “outstanding binding affinity” in each case. Also, the effect on behavior result in test [5] is reported as “attractive effect”; in test [7], “repellent”; in [8], “repellent”. Also, the pKi in test [2] is 5.34. In test [2], the negative-log IC50 (pIC50) is 5.28.

As to `CCCCCCOC(C)=O` [Hexyl acetate], in test [2], the negative-log Ki (pKi) was under 4.30 and the negative-log IC50 (pIC50) was under 4.30.

For the molecule `CC(=O)OCCC(C)C` [Isoanyl acetate], in [2], the negative-log Ki (pKi) was 4.68 and the negative logarithm of the IC50 (pIC50) is 4.62.

Take `C=CC(C)(O)CCC=C(C)C` (stereo not drawn) [Linalol]: in [2], the negative logarithm of the Ki (pKi) is under 4.30 and the negative-log IC50 (pIC50) was under 4.30.

In the case of `COC(=O)c1ccccc1O` [Methyl salicylate], in test [2], the pKi was under 4.30 and the pIC50 was under 4.30.

For the molecule `C=CC(=C)CCC=C(C)C` [Myrcene], in test [2], the pKi is 4.76 and the negative-log IC50 (pIC50) was 4.70.

For `CCCCCCCCCCCCCC(=O)O` [Myristic acid], in test [2], the pKi is 5.45 and the pIC50 is 5.39.

Consider `CCCCC(CC)COC(=O)C=Cc1ccc(OC)cc1` (stereo not drawn) [Octyl methoxycinnamate], for which, in test [2], the pKi was 5.94 and the pIC50 was 5.88.

As to `CCCCCCCCCCCCCCCC(=O)O` [Palmitic acid], the binding result in [9] was “bind well”. Besides, the binding affinity entry in test [10] is given as “high binding affinity”. For the same molecule, in test [2], the pKi was 5.28 and the pIC50 was 5.22. In addition, in [11], the binding result was “bind well”.

Regarding `C=Cc1ccccc1` [Styrene], in [2], the pKi was 4.44 and the negative logarithm of the IC50 (pIC50) was 4.38.

With `CCCCC/C=C\C/C=C\CCCCCCCC(=O)O` [linoleic], the binding affinity result in test [10] is given as “high binding affinity”.

As for `CCCCCCCC/C=C\CCCCCCCC(=O)O` [oleic], the binding affinity entry in [10] is given as “high binding affinity”.

Consider `CCCCCCCCCCCCCCCCCC(=O)O` [stearic], for which, in test [10], the binding affinity result is listed as “high binding affinity”.

In the case of `C=C1CCC2CC1C2(C)C` (stereo not drawn) [β-Pinene], in test [2], the pKi is 4.54 and the pIC50 was 4.48.
